The values that follow come from patent publication US20200247846A1, “INHIBITION OF OXIDATIVE STRESS, GLYCATION, AND PROTEIN CROSSLINKING” (THE REGENTS OF THE UNIVERSITY OF COLORADO, A BODY CORPORATE, priority 2017, published 2020).

A short description of series [1]: Stability of GTG in buffers, UPLC-MS MRM analysis. Format: physicochemical. To be noted: for stability: up to 48 h. As to the method: All chromatographic analyses were carried out in a Waters Acquity UPLC system connected to a Sciex 4500 QTrap (Redwood City, Calif.). Mass spectrometric analyses were carried out in the multiple reaction monitoring (MRM) mode. Chromatographic separations were carried out in an ACQUITY BEH C18 peptide column (100*2.1 mm, 1.7 μm; Waters) connected to a guard column using a flow rate of 0.5 ml/min. Water (solvent A) and acetonitrile (solvent B) were used as eluents. To both solvents, 0.1% heptafluorobutyric acid (v/v) was added. Analyses were performed at a column temperature of 40° C. using gradient elution: 5% B (0-0.25 min) to 20% B (2 min) to 50% B (3 min) to 100% B (3.5-5 min). The column was equilibrated at 5% B for 1 min prior to the next analysis. Detection of the analytes was achieved by using full scan mode for the identification of metabolites in preparative HPLC fraction and multiple reaction monitoring for the quantitation in stability experiments. The ion source was run under the following conditions: temperature, 550° C.; ion spray voltage, 4.5 kV; curtain gas, 45 ml/min; nebulizer gas, 60 ml/min; heating gas, 60 ml/min.
To test the stability, GTG was incubated under various conditions. The following buffers were used: 0.1 M phosphate buffer pH 5, 0.1 M phosphate buffer pH 7, 0.1 M phosphate buffer pH 9 and 0.1% formic acid. 10 μM solutions of […] in each buffer were stored at 4° C., 25° C. or 37° C. for up to 48 h, respectively. Sample aliquots were directly injected to ULPC-MS for MRM analysis. For the identification of degradation products sample aliquots were analyzed using full scan mode.

The subject of series [2] is Mouse lenses. Kind of series: Mouse lens stiffness (axial and equatorial strain under load). To be noted: 1.5 mM GTG, 48 h, 37° C.; load of 2,700 mg. How it is done:
Mouse lenses (6 months old) were incubated with 1.5 mM GTG for 48 h at 37° C. in serum free MEM in a CO2 incubator. Lens stiffness was measured using a set up as described previously (Cheng C, et al., Journal of visualized experiments: JoVE. 2016, (111):10.3791/ 53986). Lens stiffness was measured using a load of 2,700 mg. Axial and equatorial strains were calculated as previously described (Chen, JOVE 2016, supra).

In series [3] the test system is diabetic mice. Kind of series: AGE levels in lenses and retinas of STZ-diabetic mice by UPLC-MS/MS. Format: in vivo. Particulars: 1 nmole/g body weight i.p. once every two days, 8 weeks; vs untreated diabetic controls. As to the method: The bar graphs are the means±SD of at least 8 measurements. *p<0.05, **p<0.005.
GTG was also tested in diabetic mice. Diabetes was induced by repeated STZ injections. GTG (1 nmole/g body weight) was injected intraperitoneally once every two days. After 8 weeks, lenses and retinas were harvested and analyzed for AGE levels by UPLC-MS/MS.

The test system of series [4] is αB-Crystallin. The series is described as follows: αB-Crystallin incubated with methylglyoxal with or without GTG: covalent crosslinking and AGE levels. Format: biochemical. To be noted: 250 μM GTG + 250 μM MGO. As to the method:
Legend: 1. αB-crystallin control, 2. αB-crystallin+250 μM GTG, 3. αB-crystallin+250 μM MGO, 4. αB-crystallin+250 μM GTG+250 μM MGO. The bar graphs are means±SD of triplicate measurements. ***p<0.0005. […] Lanes: 1. MW marker, 2. αB-crystallin standard, 3. αB-crystallin blank, 4. αB-crystallin+250 μM GTG, 5. αB-crystallin+250 μM MGO, 5. αB-crystallin+250 μM GTG and 250 μM MGO.
To test the efficacy of GTG in the inhibition of AGE production, αB-Crystallin was incubated with methylglyoxal in the presence or absence of GTG and analyzed for covalent crosslinking and AGE levels.

In series [5] the test system is human lens cells (FHL 124). The series is described as follows: FHL 124 cells: levels of GTG metabolites and α-dicarbonyls. Format: cell-based. How it is done:
FIG. 6A depicts the scheme of dehydroascorbate (DHA) degradation and formation of reactive α-dicarbonyls and AGEs. […] The bar graphs are means±SD of triplicate measurements. **p<0.005, ***p<0.0005.
Next, human lens cells (FHL 124) were incubated with dehydroascorbic acid in the presence or absence of GTG and analyzed for levels of GTG and its metabolites as well as α-dicarbonyls. […] FHL124 cells were pretreated with GTG before either DHA or MGO was added.

`CCOC(=O)CNC(=O)C(CSSCCNC(=N)N)NC(=O)CCC(N)C(=O)OCC` (stereo not shown) [GTG, glutathione diethyl ester thioethylguanidine disulfide]: the stability result is on record as “stable at all temperatures” in series [1] (0.1% formic acid, 10 μM, 4° C., 25° C. or 37° C.); “stable” in series [1] (0.1 M phosphate buffer pH 5, 4° C.); “stable” in series [1] (0.1 M phosphate buffer pH 5, 25° C.); “slightly degraded” in series [1] (0.1 M phosphate buffer pH 5, 37° C.); “degraded at all temperatures” in series [1] (0.1 M phosphate buffer pH 7, 4° C., 25° C. or 37° C.); “degraded at all temperatures” in series [1] (0.1 M phosphate buffer pH 9, 4° C., 25° C. or 37° C.). In addition, in series [1] (all buffer and temperature conditions of the stability test), the “reduction of the disulfide bond during the incubation” value is recorded as “not observed”. In addition, the “improvement of axial strain in comparison to control lenses” value in series [2] is reported as 23%. For the same compound, the “improvement of equatorial strain in comparison to control lenses” value in series [2] is 72%. Moreover, in series [3], the “AGE levels in the lens” value is reported as “lower”. In series [3], the “AGE levels in the retina” value is on record as “lower”. In addition, the “covalent crosslinking in αB-crystallin incubated with methylglyoxal” value in series [4] (SDS-PAGE) was “significantly reduced”. Moreover, in series [4] (after acid hydrolysis), the “AGE formation (CEL levels) in αB-crystallin incubated with methylglyoxal” value was “significantly reduced”. The “penetration of the plasma membrane of FHL124 cells” value in series [5] (50 mM GTG for 2 h) is reported as “able to penetrate the plasma membrane”. In addition, in series [5] (50 mM GTG for 2 h, FHL124 cells), the “intracellular conversion to glutathione and mercaptoethylguanidine” value is “immediately reduced and hydrolyzed to glutathione and mercaptoethylguanidine”. For the same compound, the “reactive α-dicarbonyls derived from dehydroascorbic acid” value in series [5] (cells treated 24 h with dehydroascorbic acid, subsequent incubation with GTG) is given as “significant reduction”.
